Results published in patent publication EP4624454A1, “NON-COVALENT DIMER CATION, AND SALT THEREOF, PREPARATION METHOD THEREFOR AND USE THEREOF” (Suzhou Protonation Chain Biotechnology Co., Ltd, priority 2022, dated 2024).

Columns and labels:
[1] = tested on: GES-1 human gastric mucosal epithelial cells; test: cells; type: cell-based; conditions: GES1, 24 h, read-out: Cell viability (%)
Experimental: Long-term alcoholics were prone to gastric mucosal damage due to long-term alcohol damage.
A blank control group (without ethanol) and a model group (with ethanol but without the salt or glycyrrhetinic acid in the examples) were set.
The cells were cultured in a complete RPMI 1640 medium for 6 h.
Then, the cell viability was detected. […] Table 2 Cell viability of ethanol-induced damage models of gastric mucosal epithelial cells

[2] = tested on: SH-SY5Y human neuroblastoma cells; test: Parkinson's disease cell model (6-OHDA), cell viability; conditions: 24 h, read-out: Cell viability (%)
Experimental: A blank control group (without 6-OHDA) and a model group (with 6-OHDA but without the salt of this example or selegiline) were set.
SH-SY5Y human neuroblastoma cells were uniformly inoculated into a 96-well plate, about 5,000 cells per well. The cells were cultured in a complete DMEM/F12 medium for 6 h. After the cells were completely adhered to the wall, all the media were removed, 100 µL of serum-free DMEM/F12 medium, i.e., a cell culture solution, containing 150 µmol/L of 6-OHDA (a serum-free DMEM/F12 medium without 6-OHDA was added to the blank group), was added to each well, and the cells were incubated and cultured for 24 h.
Then, all the media were removed again, 100 µL of each of serum-free DMEM/ F12 media, i.e., cell culture solutions, containing 0.025 g/mL, 0.05 g/mL, 0.1 g/mL, 0.2 g/mL, 0.4 g/mL and 0.8 g/mL of compound of experimental or control groups (a serum-free DMEM/ F12 medium without compound of experimental or control groups was added to the blank group and a model group) were added to each well according to the groups, and the cells were cultured in a cell culture solution for 24 h.

| SMILES | viability at 25 µg/mL [1] [%] | viability at 50 µg/mL [1] [%] | viability at 100 µg/mL [1] [%] | viability at 200 µg/mL [1] [%] | viability at 400 µg/mL [1] [%] | viability at 800 µg/mL [1] [%] | viability at 25 µg/mL [2] [%] | viability at 50 µg/mL [2] [%] | viability at 100 µg/mL [2] [%] | viability at 200 µg/mL [2] [%] | viability at 400 µg/mL [2] [%] | viability at 800 µg/mL [2] [%] |
| --- | --- | --- | --- | --- | --- | --- | --- | --- | --- | --- | --- | --- |
| CC1(C)[C@@H](O)CC[C@]2(C)[C@H]3C(=O)C=C4[C@@H]5C[C@@](C)(C(=O)O)CC[C@]5(C)CC[C@@]4(C)[C@]3(C)CC[C@@H]12 [Glycyrrhetinic acid, glycyrrhetinic acid] | 59.4 | 61.8 | 64.3 | 65.2 | 68.9 | 71.9 | – | – | – | – | – | – |
| C#CCN(C)[C@H](C)Cc1ccccc1 [Selegiline, selegiline] | – | – | – | – | – | – | 33.4 | 37.5 | 43.3 | 49.9 | 58.5 | 69.8 |
